# Test: Weight of the mice
# Assay type: in vivo
# Parameters: Mean Diff. of weight, vehicle vs. NU-9: unit not given here
# Conditions: for Mean weight (Mean 2): hSOD1G93A-UeGFP mice, in g (unit assumed); for Weight, Average: hSOD1G93A-UeGFP
# Procedure: hSOD1^G93A‐UeGFP, prpTDP‐43^A315T‐UeGFP and WT‐UeGFP mice were weighed and the required NU‐9 dose per weight was calculated (20 or 100 mg/kg), which was administered once daily by oral gavage, starting at postnatal day (P)60 and continuing until P120. Animals from the untreated group received the vehicle (NMP and olive oil) only. For oral administration purposes, 20 ga × 38 mm plastic feeding tubes were used (Instech Laboratories, Inc). The gavage tip was inserted into the mouth directly over the tongue and into the pharynx. While observing the swallowing reflex, the tip was safely and smoothly slid into the esophagus. Once the administration was completed, the gavage tip was pulled straight out.
# Behavior data were collected from hSOD1^G93A‐UeGFP and WT‐UeGFP mice (starting at P60 and every 7 days until P116) and from prpTDP‐43^A315T‐UeGFP mice (at P60, P90, and P120) with the following number of mice for each group: WT‐UeGFP vehicle (n = 10), hSOD1^G93A‐UeGFP vehicle (n = 6), WT‐UeGFP 20 mg/kg/day NU‐9 (n = 5), hSOD1^G93A‐UeGFP 20 mg/kg/day NU‐9 (n = 7), WT‐UeGFP 100 mg/kg/day NU‐9 (n = 11), hSOD1^G93A‐UeGFP 100 mg/kg/day NU‐9 (n = 9), prpTDP‐43^A315T‐UeGFP untreated (n ≥ 3), and prpTDP‐43^A315T‐UeGFP 100 mg/kg/day NU‐9 (n = 4) (Table S3).
smiles,measurement,setting,value
C[C@H](Oc1cc(C(F)(F)F)cc(C(F)(F)F)c1)C1CC(=O)CC(=O)C1 [NU‐9],"Mean Diff. of weight, vehicle vs. NU-9","hSOD1G93A-UeGFP (vehicle) vs. hSOD1G93A-UeGFP (NU-9 20 mg/kg/day), P60, Tukey's multiple comparisons test",0.6667
same,"Mean Diff. of weight, vehicle vs. NU-9","hSOD1G93A-UeGFP (vehicle) vs. hSOD1G93A-UeGFP (NU-9 20 mg/kg/day), P67, Tukey's multiple comparisons test",0.6429
same,"Mean Diff. of weight, vehicle vs. NU-9","hSOD1G93A-UeGFP (vehicle) vs. hSOD1G93A-UeGFP (NU-9 20 mg/kg/day), P74, Tukey's multiple comparisons test",0.2381
same,"Mean Diff. of weight, vehicle vs. NU-9","hSOD1G93A-UeGFP (vehicle) vs. hSOD1G93A-UeGFP (NU-9 20 mg/kg/day), P81, Tukey's multiple comparisons test",0.5952
same,"Mean Diff. of weight, vehicle vs. NU-9","hSOD1G93A-UeGFP (vehicle) vs. hSOD1G93A-UeGFP (NU-9 20 mg/kg/day), P88, Tukey's multiple comparisons test",0.2857
same,"Mean Diff. of weight, vehicle vs. NU-9","hSOD1G93A-UeGFP (vehicle) vs. hSOD1G93A-UeGFP (NU-9 20 mg/kg/day), P95, Tukey's multiple comparisons test",0.7619
same,"Mean Diff. of weight, vehicle vs. NU-9","hSOD1G93A-UeGFP (vehicle) vs. hSOD1G93A-UeGFP (NU-9 20 mg/kg/day), P102, Tukey's multiple comparisons test",0.5714
same,"Mean Diff. of weight, vehicle vs. NU-9","hSOD1G93A-UeGFP (vehicle) vs. hSOD1G93A-UeGFP (NU-9 20 mg/kg/day), P109, Tukey's multiple comparisons test",0.4762
same,"Mean Diff. of weight, vehicle vs. NU-9","hSOD1G93A-UeGFP (vehicle) vs. hSOD1G93A-UeGFP (NU-9 20 mg/kg/day), P116, Tukey's multiple comparisons test",-0.1429
same,"Mean Diff. of weight, vehicle vs. NU-9","hSOD1G93A-UeGFP (vehicle) vs. hSOD1G93A-UeGFP (NU-9 100 mg/kg/day), P60, Tukey's multiple comparisons test",1.222
same,"Mean Diff. of weight, vehicle vs. NU-9","hSOD1G93A-UeGFP (vehicle) vs. hSOD1G93A-UeGFP (NU-9 100 mg/kg/day), P67, Tukey's multiple comparisons test",1.167
same,"Mean Diff. of weight, vehicle vs. NU-9","hSOD1G93A-UeGFP (vehicle) vs. hSOD1G93A-UeGFP (NU-9 100 mg/kg/day), P74, Tukey's multiple comparisons test",0.2222
same,"Mean Diff. of weight, vehicle vs. NU-9","hSOD1G93A-UeGFP (vehicle) vs. hSOD1G93A-UeGFP (NU-9 100 mg/kg/day), P81, Tukey's multiple comparisons test",0.7222
same,"Mean Diff. of weight, vehicle vs. NU-9","hSOD1G93A-UeGFP (vehicle) vs. hSOD1G93A-UeGFP (NU-9 100 mg/kg/day), P88, Tukey's multiple comparisons test",0.1111
same,"Mean Diff. of weight, vehicle vs. NU-9","hSOD1G93A-UeGFP (vehicle) vs. hSOD1G93A-UeGFP (NU-9 100 mg/kg/day), P95, Tukey's multiple comparisons test",0.1111
same,"Mean Diff. of weight, vehicle vs. NU-9","hSOD1G93A-UeGFP (vehicle) vs. hSOD1G93A-UeGFP (NU-9 100 mg/kg/day), P102, Tukey's multiple comparisons test",0
same,"Mean Diff. of weight, vehicle vs. NU-9","hSOD1G93A-UeGFP (vehicle) vs. hSOD1G93A-UeGFP (NU-9 100 mg/kg/day), P109, Tukey's multiple comparisons test",0.5556
same,"Mean Diff. of weight, vehicle vs. NU-9","hSOD1G93A-UeGFP (vehicle) vs. hSOD1G93A-UeGFP (NU-9 100 mg/kg/day), P116, Tukey's multiple comparisons test",0.1111
same,Mean weight (Mean 2),"NU-9 20 mg/kg/day, P60",17
same,Mean weight (Mean 2),"NU-9 20 mg/kg/day, P67",16.86
same,Mean weight (Mean 2),"NU-9 20 mg/kg/day, P74",16.43
same,Mean weight (Mean 2),"NU-9 20 mg/kg/day, P81",16.57
same,Mean weight (Mean 2),"NU-9 20 mg/kg/day, P88",16.71
same,Mean weight (Mean 2),"NU-9 20 mg/kg/day, P95",16.57
same,Mean weight (Mean 2),"NU-9 100 mg/kg/day, P60",16.44
same,Mean weight (Mean 2),"NU-9 100 mg/kg/day, P67",16.33
same,Mean weight (Mean 2),"NU-9 100 mg/kg/day, P74",16.44
same,Mean weight (Mean 2),"NU-9 100 mg/kg/day, P81",16.44
same,Mean weight (Mean 2),"NU-9 100 mg/kg/day, P88",16.89
same,Mean weight (Mean 2),"NU-9 100 mg/kg/day, P95",17.22
same,"Weight, Average","NU-9 20 mg/kg/day po, P60",17 g
same,"Weight, Average","NU-9 20 mg/kg/day po, P67",16.8571 g
same,"Weight, Average","NU-9 20 mg/kg/day po, P74",16.4286 g
same,"Weight, Average","NU-9 20 mg/kg/day po, P81",16.5714 g
same,"Weight, Average","NU-9 20 mg/kg/day po, P88",16.7143 g
same,"Weight, Average","NU-9 20 mg/kg/day po, P95",16.5714 g
same,"Weight, Average","NU-9 20 mg/kg/day po, P102",16.4286 g
same,"Weight, Average","NU-9 20 mg/kg/day po, P109",16.8571 g
same,"Weight, Average","NU-9 20 mg/kg/day po, P116",17.1429 g
same,"Weight, Average","NU-9 100 mg/kg/day po, P60",16.4444 g
same,"Weight, Average","NU-9 100 mg/kg/day po, P67",16.3333 g
same,"Weight, Average","NU-9 100 mg/kg/day po, P74",16.4444 g
same,"Weight, Average","NU-9 100 mg/kg/day po, P81",16.4444 g
same,"Weight, Average","NU-9 100 mg/kg/day po, P88",16.8889 g
same,"Weight, Average","NU-9 100 mg/kg/day po, P95",17.2222 g
same,"Weight, Average","NU-9 100 mg/kg/day po, P102",17 g
same,"Weight, Average","NU-9 100 mg/kg/day po, P109",16.7778 g
same,"Weight, Average","NU-9 100 mg/kg/day po, P116",16.8889 g

# Source: paper PMC7898037, “Improving mitochondria and ER stability helps eliminate upper motor neuron degeneration that occurs due to mSOD1 toxicity and TDP‐43 pathology” (Clinical and Translational Medicine, 2021)
